What was measured:
Pharmacokinetics in dogs = format: in vivo; conditions: male beagle dogs
Description: (§1) The pharmacokinetic parameters for several compounds were determined in mice following IV (intravenous), IP (intraperitoneal), or PO (per os) administration, as well as in rats and dogs. A typical study design includes six Balbc male mice 7 to 8 weeks old. For instance, a dose of 10 mg/kg was administered IV using a 5% DMS0/90% Captisol (20% in water) solution or other pharmaceutically acceptable parenteral and oral formulations. Blood samples were collected at different intervals. Plasma samples were extracted and analyzed using an LC-MS/MS method. Similar protocols were used for the rats (Sprague Dawley rats) or dogs (beagles) PK studies; in the case of dogs PK studies, the number of animals per group was three.
(§2) PFK-065 was dosed at 10 mg/kg in male Balbc mice; PFK-095 was dosed at 10 mg/kg in male Sprague Dawley rats; and PFK-112 dosed at 6 mg/kg in male beagle dogs.

[1] = Cell permeability in MDR1-MDCK monolayers; format: in vitro ADME; conditions: dog, MDR1-MDCK cells, pH 7.4
Description: (§3) The determination of the permeability in Caco2 or MDR1-MDCK cells is widely used when screening compounds to assess cell permeability, intestinal drug transport and predict absorption rates and to ascertain if a compound might be a Pgp substrate and have cross the blood brain barrier. […] Comparison of the apical to basal (A-B) and basal to apical (B-A) values show if a compound is actively effluxed out the cells and if it is a Pgp substrate. […] Briefly, cell permeability and transport mechanisms in Caco-2 and MDR1-MDCK monolayers experiments were performed in triplicate in the apical-to-basolateral and basolateral-to-apical direction using Transwell wells containing either Caco-2 or MDR1-MDCK monolayers. A modified Hanks buffer pH 7.4 was used in both reservoir and receiver wells with the addition of 1% BSA in the receiver side. Confluent monolayers were used and their integrity was verified using reference compounds (Atenolol as a low permeability reference compound and Propanolol as a high permeability reference compound). A sample in the basolateral and apical sides was taken after 2 hours and the concentration measured by LC/MS-MS.

[2] = Cell permeability in Caco2 monolayers; format: in vitro ADME; conditions: human, Caco-2, Caco2 cells, pH 7.4
Description: as §3

Hela = assay: Cell proliferation, MTT assay, 72 hours; format: cell-based; conditions: Homo sapiens
Description: (§4) The ability of the compounds described herein to kill or inhibit the proliferation of cancer cells was measured using either the MTT assay, or the Alamar Blue assay, or the Cell Titer Glow® assay using 48 or 72 hours exposure. […] The procedures are briefly described below. Cells of the desired tumor cell line were plated at 2×10^5 cells/ml in 96 well plates. Twice the indicated concentrations of the compounds of the invention were added to cells the following day in an equal volume of media. 72 hours later, cells were lysed and subjected to ATP determination using the CellTiter Glo-Luminescent Cell Viability Assay kit (Promega, Madison, Wis.). Experiments were done in triplicate. When using the MTT assay or the Alamar blue assay, the experimental conditions are essentially similar; at the end of the incubation period, 20 microliters of the MTT solution is added per well and the samples are incubated for an additional four hours, rinsed, and the absorbance at 570 nm measured. […] Table 2 lists the IC50 values for the compounds of the invention in several cell lines including Jurkat, Calu-6, NCI-H82, U937, HCT-116, and MDA-MB-231 cancer cell lines.

H209 = assay: Cell proliferation, MTT assay, 72 hours; format: cell-based; conditions: Homo sapiens, NCI-H209
Description: as §4

HT-29 = assay: Cell proliferation, MTT assay, 72 hours; format: cell-based; conditions: Homo sapiens, HT-29, MTT assay
Description: as §4

U937 = assay: Cell proliferation, MTT assay, 72 hours; format: cell-based; conditions: Homo sapiens, U-937
Description: as §4

DU145 = assay: Cell proliferation, MTT assay, 72 hours; format: cell-based; conditions: Homo sapiens, DU-145
Description: as §4

NCI-H82 = assay: Cell proliferation, MTT assay, 72 hours; format: cell-based; conditions: Homo sapiens
Description: as §4

MDA-MB-231 = assay: Cell proliferation, MTT assay, 72 hours; format: cell-based; conditions: Homo sapiens, MDA-MB-231, MTT assay
Description: as §4

Calu-6 = assay: Cell proliferation, MTT assay, 72 hours; format: cell-based; conditions: Homo sapiens, Calu-6, MTT assay
Description: as §4

PC3 = assay: Cell proliferation, MTT assay, 72 hours; format: cell-based; conditions: Homo sapiens, PC-3
Description: as §4

Jurkat = assay: Cell proliferation, MTT assay, 72 hours; format: cell-based; conditions: Homo sapiens
Description: as §4

HCT-116 = assay: Cell proliferation, MTT assay, 72 hours; format: cell-based; conditions: Homo sapiens, HCT-116, MTT assay
Description: as §4

K562 = assay: Cell proliferation, MTT assay, 72 hours; format: cell-based; conditions: Homo sapiens
Description: as §4

Hep G2 = assay: Cell proliferation, MTT assay, 72 hours; format: cell-based; conditions: Homo sapiens, HepG2
Description: as §4

Pharmacokinetics in rats = format: in vivo; conditions: male Sprague Dawley rats
Description: as §1, §2

For `Nc1ccc(C(=O)c2cc3c(ccc4ccccc43)[nH]2)cc1` [ACT-PFK-112, (4-Amino-phenyl)-(3H-benzo[e]indol-2-yl)-methanone], the T1/2b (Pharmacokinetics in dogs; IV 6 mg/kg) was 5.8 h, the AUC(0-inf) (Pharmacokinetics in dogs; dog, plasma, IV 6 mg/kg) was 5070 ng·h/mL and the Cmax (Pharmacokinetics in dogs; dog, plasma, IV 6 mg/kg) was 5060 ng/mL. The Vd (Pharmacokinetics in dogs; dog, plasma, IV 6 mg/kg) was 1.8 L/kg, the “% F (from PO group)” value (Pharmacokinetics in dogs; oral bioavailability, PO 24 mg/kg vs IV 6 mg/kg) was 95% and the Papp A→B at 2 h ([1]; apical to basal) was 7.8 ×10⁻⁶ cm/s. It also gave a Papp B→A at 2 h ([1]; basal to apical) of 17.3 ×10⁻⁶ cm/s.

In the case of `O=C(c1ccncc1)c1cc2c(ccc3ccccc32)[nH]1` [ACT-PFK-095, (3H-Benzo[e]indol-2-yl)-pyridin-4-yl-methanone], the Papp A→B at 2 h ([2]; apical to basal) is reported as 16.2 ×10⁻⁶ cm/s, the Papp B→A at 2 h ([2]; basal to apical) is reported as 8.9 ×10⁻⁶ cm/s and the IC50 (Hela) is reported as 9100 nM. It also gave an IC50 (H209) of 190 nM, an IC50 (HT-29) of 450 nM and an IC50 (U937) of 50 nM. The IC50 (DU145) was 940 nM, the IC50 (NCI-H82) was 180 nM and the IC50 (MDA-MB-231) was 24900 nM. The IC50 (Calu-6) was 140 nM, the IC50 (PC3) was 950 nM and the IC50 (Jurkat) was 4650 nM. For the same compound, the IC50 (HCT-116) was 510 nM, the IC50 (K562) was 210 nM and the IC50 (Hep G2) was 5500 nM. For the same compound, the Cmax (Pharmacokinetics in rats; IV 10 mg/kg) was 16932 ng/mL, the T1/2b (Pharmacokinetics in rats; IV 10 mg/kg) was 5.5 h and the Vd (Pharmacokinetics in rats; IV 10 mg/kg) was 2.5 L/kg. For the same compound, the “% F (from PO group)” value (Pharmacokinetics in rats; oral bioavailability, PO 10 mg/kg) was 38% and the AUC(0-inf) (Pharmacokinetics in rats; rat, plasma, IV 10 mg/kg) was 1290 ng·h/mL.

Source: patent publication US20130059879A1, “Small Molecule Inhibitors of PFKFB3 and Glycolytic Flux and Their Methods of Use as Anti-Cancer Therapeutics” (UNIVERSITY OF LOUISVILLE RESEARCH FOUNDATION, INC., priority 2010, published 2013)
